Measurements taken from patent US7855290B2, “Pyridine derivatives and pyrimidine derivatives (3)” (Eisai R&D Management Co., Ltd., priority 2005, dated 2010).

The molecules below were run against T1, His6-HGFR (HGFR cytoplasmic domain) (Homo sapiens, UniProt P08581) (assay: Inhibitory activity against HGFR tyrosine kinase activity (HTRF)). Conditions: biotin-poly(GT), ATP, 30° C. 10 min.
T1 construct: made in house; host or cells: Sf9 insect cells (Spodoptera frugiperda), baculovirus, pFastBac-HT vector
Format: biochemical
Procedure, shortened: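 Sf9-expressed, Ni-NTA-purified N-terminal His6-tagged HGFR cytoplasmic domain (from Lys974), 30 ng, phosphorylates 250 ng biotin-poly(GT) in Hepes pH 7.4 with MgCl2, MnCl2 and Na3VO4. Reaction started with 4 μM ATP stock, run 10 min at 30° C, stopped with EDTA. Phosphotyrosine is detected by HTRF.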

T1 sequence (P08581 956-1390 limits assumed): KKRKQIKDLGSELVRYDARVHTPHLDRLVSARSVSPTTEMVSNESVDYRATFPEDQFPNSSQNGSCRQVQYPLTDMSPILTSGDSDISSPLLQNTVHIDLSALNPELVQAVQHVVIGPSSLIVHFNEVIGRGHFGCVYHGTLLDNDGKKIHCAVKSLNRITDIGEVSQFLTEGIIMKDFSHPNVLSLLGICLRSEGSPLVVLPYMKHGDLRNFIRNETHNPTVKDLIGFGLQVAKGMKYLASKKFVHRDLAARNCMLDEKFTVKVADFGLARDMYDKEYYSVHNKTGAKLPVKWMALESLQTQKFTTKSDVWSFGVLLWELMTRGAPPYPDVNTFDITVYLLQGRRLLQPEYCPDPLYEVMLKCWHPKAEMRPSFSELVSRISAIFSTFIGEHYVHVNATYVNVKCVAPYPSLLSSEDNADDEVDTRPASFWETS

**Q.** How did the IC50 turn out when `O=C(Nc1cc(Oc2ccc(NC(=O)C3(C(=O)Nc4ccc(F)cc4)CC3)c(F)c2)ccn1)N1CCC(O)CC1` [Example 82, N-[2-Fluoro-4-[(2-{[(4-hydroxypiperidin-1-yl)carbonyl]amino}pyridin-4-yl)oxy]phenyl}-N′-(4-fluorophenyl)cyclopropane-1,1-dicarboxamide] was run?
**A.** Its IC50 is 16 nM.

**Q.** How did the IC50 turn out when `O=C(Nc1cc(Oc2cc(F)c(NC(=O)C3(C(=O)Nc4ccc(F)cc4)CC3)cc2F)ccn1)N1CC(CN2CCC2)C1` [Example 95, N-{4-[(2-{[3-(Azetidin-1-ylmethyl)azetidin-1-ylcarbonyl]amino}pyridin-4-yl)oxy]-2,5-difluorophenyl}-N′-(4-fluorophenyl)cyclopropane-1,1-dicarboxamide] was run?
**A.** Its IC50 is 50 nM.

**Q.** `O=C(Nc1cc(Oc2ccc(NC(=O)C3(C(=O)Nc4ccc(F)cc4)CC3)cc2F)ccn1)N1CC[C@H](O)C1` [Example 88, N-(3-Fluoro-4-{[2-({[(3S)-3-hydroxypyrrolidin-1-yl]carbonyl}amino)pyridin-4-yl]oxy}phenyl)-N′-(4-fluorophenyl)cyclopropane-1,1-dicarboxamide] was tested. Which IC50 did it give?
**A.** Its IC50 is 16 nM.

**Q.** With `O=C(Nc1cc(Oc2cc(F)c(NC(=O)C3(C(=O)Nc4ccc(F)cc4)CC3)cc2F)ccn1)N1CCC1` [Example 90, N-[4-({2-[(Azetidin-1-ylcarbonyl)amino]pyridin-4-yl}oxy)-2,5-difluorophenyl]-N′-(4-fluorophenyl)cyclopropane-1,1-dicarboxamide] as the molecule, how does the IC50 read?
**A.** The IC50 was 12 nM.

**Q.** How did the IC50 turn out when `O=C(Nc1cc(Oc2ccc(NC(=O)C3(C(=O)Nc4ccc(F)cc4)CC3)cc2F)ccn1)N1CCC(O)CC1` [Example 84, N-[3-Fluoro-4-[(2-{[(4-hydroxypiperidin-1-yl)carbonyl]amino}pyridin-4-yl)oxy]phenyl}-N′-(4-fluorophenyl)cyclopropane-1,1-dicarboxamide] was run?
**A.** The IC50 was 9 nM.

**Q.** How did the IC50 turn out when `O=C(Nc1cc(Oc2ccc(NC(=O)C3(C(=O)Nc4ccc(F)cc4)CC3)cc2F)ccn1)N1CC(CO)C1` [Example 81, N-(3-Fluoro-4-{[2-({[3-(hydroxymethyl)azetidin-1-yl]carbonyl}amino)pyridin-4-yl]oxy}phenyl)-N′-(4-fluorophenyl)cyclopropane-1,1-dicarboxamide] was run?
**A.** Its IC50 is 19 nM.

**Q.** For `O=C(Nc1cc(Oc2cc(F)c(NC(=O)C3(C(=O)Nc4ccc(F)cc4)CC3)cc2F)ccn1)N1CC(CO)C1` [Example 96, N-(2,5-Difluoro-4-{[2-({[3-(hydroxymethyl)azetidin-1-yl]carbonyl}amino)pyridin-4-yl]oxy}phenyl)-N′-(4-fluorophenyl)cyclopropane-1,1-dicarboxamide], which IC50 is on record?
**A.** Its IC50 is 17 nM.

**Q.** `CN(C)CC1CN(C(=O)Nc2cc(Oc3cc(F)c(NC(=O)C4(C(=O)Nc5ccc(F)cc5)CC4)cc3F)ncn2)C1` [Example 98, N-[4-({4-[({3-[(Dimethylamino)methyl]azetidin-1-yl}carbonyl)amino]pyrimidin-6-yl}oxy)-2,5-difluorophenyl]-N′-(4-fluorophenyl)cyclopropane-1,1-dicarboxamide] was tested. Which IC50 did it give?
**A.** The IC50 was 67 nM.

**Q.** Which IC50 does the source give for `O=C(Nc1cc(Oc2ccc(NC(=O)C3(C(=O)Nc4ccc(F)cc4)CC3)c(F)c2)ccn1)N1CC[C@H](O)C1` [Example 89, N-(2-Fluoro-4-{[2-({[(3S)-3-hydroxypyrrolidin-1-yl]carbonyl}amino)pyridin-4-yl]oxy}phenyl)-N′-(4-fluorophenyl)cyclopropane-1,1-dicarboxamide] here?
**A.** The IC50 was 13 nM.

**Q.** For `CN1CCN(C2CCN(C(=O)Nc3cc(Oc4cc(F)c(NC(=O)C5(C(=O)Nc6ccc(F)cc6)CC5)cc4F)ccn3)CC2)CC1` [Example 92, N-(2,5-Difluoro-4-{[2-({[4-(4-methylpiperazin-1-yl)piperidin-1-yl]carbonyl}amino)pyridin-4-yl]oxy}phenyl)-N′-(4-fluorophenyl)cyclopropane-1,1-dicarboxamide], which IC50 is on record?
**A.** The IC50 was 47 nM.

**Q.** With `CN(C)CC1CN(C(=O)Nc2cc(Oc3cc(F)c(NC(=O)C4(C(=O)Nc5ccc(F)cc5)CC4)cc3F)ccn2)C1` [Example 93, N-[2,5-Difluoro-4-({2-[({3-[(dimethylamino)methyl]azetidin-1-yl]carbonyl)amino]pyridin-4-yl}oxy)phenyl]-N′-(4-fluorophenyl)cyclopropane-1,1-dicarboxamide] as the molecule, how does the IC50 read?
**A.** The IC50 was 42 nM.

**Q.** `O=C(Nc1cc(Oc2ccc(NC(=O)C3(C(=O)Nc4ccc(F)cc4)CC3)c(F)c2)ccn1)N1CCC(CO)CC1` [Example 83, N-(2-Fluoro-4-{[2-({[4-(hydroxymethyl)piperidin-1-yl]carbonyl}amino)pyridin-4-yl]oxy}phenyl)-N′-(4-fluorophenyl)cyclopropane-1,1-dicarboxamide] was tested. Which IC50 did it give?
**A.** The IC50 was 17 nM.

**Q.** Which IC50 does the source give for `O=C(Nc1cc(Oc2ccc(NC(=O)C3(C(=O)Nc4ccc(F)cc4)CC3)c(F)c2)ccn1)N1CC[C@@H](O)C1` [Example 87, N-(2-Fluoro-4-{[2-({[(3R)-3-hydroxypyrrolidin-1-yl]carbonyl}amino)pyridin-4-yl]oxy}phenyl)-N′-(4-fluorophenyl)cyclopropane-1,1-dicarboxamide] here?
**A.** Its IC50 is 9 nM.

**Q.** Which IC50 does the source give for `O=C(Nc1cc(Oc2cc(F)c(NC(=O)C3(C(=O)Nc4ccc(F)cc4)CC3)cc2F)ncn1)N1CC(O)C1` [Example 97, N-{2,5-Difluoro-4-[(4-{[(3-hydroxyazetidin-1-yl)carbonyl]amino}pyrimidin-6-yl)oxy]phenyl}-N′-(4-fluorophenyl)cyclopropane-1,1-dicarboxamide] here?
**A.** Its IC50 is 21 nM.

**Q.** How did the IC50 turn out when `O=C(Nc1cc(Oc2ccc(NC(=O)C3(C(=O)Nc4ccc(F)cc4)CC3)cc2F)ccn1)N1CCC(CO)CC1` [Example 85, N-(3-Fluoro-4-{[2-({[-4-(hydroxymethyl)piperidin-1-yl]carbonyl}amino)pyridin-4-yl]oxy}phenyl)-N′-(4-fluorophenyl)cyclopropane-1,1-dicarboxamide] was run?
**A.** Its IC50 is 15 nM.

**Q.** Which IC50 does the source give for `O=C(Nc1cc(Oc2ccc(NC(=O)C3(C(=O)Nc4ccc(F)cc4)CC3)cc2F)ccn1)N1CC[C@@H](O)C1` [Example 86, N-(3-Fluoro-4-{[2-({[(3R)-3-hydroxypyrrolidin-1-yl]carbonyl}amino)pyridin-4-yl]oxy}phenyl)-N′-(4-fluorophenyl)cyclopropane-1,1-dicarboxamide] here?
**A.** The IC50 was 12 nM.

**Q.** With `CN(C)CC1CCN(C(=O)Nc2cc(Oc3ccc(NC(=O)C4(C(=O)Nc5ccc(F)cc5)CC4)cc3F)ccn2)CC1` [Example 5, N-[4-({2-[({4-[(Dimethylamino)methyl]piperidin-1-yl}carbonyl)amino]pyridin-4-yl}oxy)-3-fluorophenyl]-N′-(4-fluorophenyl)cyclopropane-1,1-dicarboxamide] as the molecule, how does the IC50 read?
**A.** Its IC50 is 60 nM.
